Results taken from publication PMC11125359 (Pharmaceuticals, 2024).

Test system: α-amylase
Assay: α-Amylase inhibition (anti-diabetic)
Assay type: biochemical
Conditions: equal concentrations (1000 µg/mL); mean ± SE

| SMILES | Inhibition (%) α-Amylase [%] |
| --- | --- |
| Cc1c(C=Nc2[nH]nc(Nc3ccccc3)c2C(=O)Nc2ccccc2)c(=O)n(-c2ccccc2)n1C [7a] | 31.30 ± 0.05 |

Test system: α-glucosidase
Assay: α-Glucosidase inhibition (anti-diabetic)
Assay type: biochemical
Conditions: equal concentrations (1000 µg/mL); mean ± SE

| SMILES | Inhibition (%) α-Glucosidase [%] |
| --- | --- |
| Cc1c(C=Nc2[nH]nc(Nc3ccccc3)c2C(=O)Nc2ccccc2)c(=O)n(-c2ccccc2)n1C [7a] | 26.91 ± 0.05 |

Target: acetylcholinesterase (AChE) (Homo sapiens, UniProt P22303)
Assay: biochemical
Conditions: same concentration (1000 µg/mL); mean ± SE

Sequence of acetylcholinesterase (AChE) (P22303 32-614, species assumed): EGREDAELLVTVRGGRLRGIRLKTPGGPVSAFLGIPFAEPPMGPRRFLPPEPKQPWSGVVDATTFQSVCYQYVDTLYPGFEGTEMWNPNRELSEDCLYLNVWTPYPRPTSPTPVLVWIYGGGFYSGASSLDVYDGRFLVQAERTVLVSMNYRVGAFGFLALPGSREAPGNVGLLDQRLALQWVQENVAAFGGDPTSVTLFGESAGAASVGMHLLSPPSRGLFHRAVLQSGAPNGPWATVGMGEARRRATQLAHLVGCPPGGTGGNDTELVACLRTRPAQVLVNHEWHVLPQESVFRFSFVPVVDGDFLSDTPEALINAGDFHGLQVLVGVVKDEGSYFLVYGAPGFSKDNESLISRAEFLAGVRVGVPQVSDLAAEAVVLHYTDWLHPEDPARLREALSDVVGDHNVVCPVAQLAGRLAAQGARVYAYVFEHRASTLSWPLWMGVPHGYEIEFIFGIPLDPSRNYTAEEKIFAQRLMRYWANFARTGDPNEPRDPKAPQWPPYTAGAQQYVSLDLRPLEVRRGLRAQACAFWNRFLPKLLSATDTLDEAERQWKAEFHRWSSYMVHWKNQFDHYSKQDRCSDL

| SMILES | inhibition at 1000 µg/mL [%] |
| --- | --- |
| Cc1c(C=Nc2[nH]nc(Nc3ccccc3)c2C(=O)Nc2ccccc2)c(=O)n(-c2ccccc2)n1C [7a] | 42.12 ± 0.03 |

Target: bovine serum albumin (BSA) (Bos taurus, UniProt P02769)
Assay: not given
Conditions: equal concentrations (1000 µg/mL); mean ± SE

Sequence of bovine serum albumin (BSA) (P02769 25-607): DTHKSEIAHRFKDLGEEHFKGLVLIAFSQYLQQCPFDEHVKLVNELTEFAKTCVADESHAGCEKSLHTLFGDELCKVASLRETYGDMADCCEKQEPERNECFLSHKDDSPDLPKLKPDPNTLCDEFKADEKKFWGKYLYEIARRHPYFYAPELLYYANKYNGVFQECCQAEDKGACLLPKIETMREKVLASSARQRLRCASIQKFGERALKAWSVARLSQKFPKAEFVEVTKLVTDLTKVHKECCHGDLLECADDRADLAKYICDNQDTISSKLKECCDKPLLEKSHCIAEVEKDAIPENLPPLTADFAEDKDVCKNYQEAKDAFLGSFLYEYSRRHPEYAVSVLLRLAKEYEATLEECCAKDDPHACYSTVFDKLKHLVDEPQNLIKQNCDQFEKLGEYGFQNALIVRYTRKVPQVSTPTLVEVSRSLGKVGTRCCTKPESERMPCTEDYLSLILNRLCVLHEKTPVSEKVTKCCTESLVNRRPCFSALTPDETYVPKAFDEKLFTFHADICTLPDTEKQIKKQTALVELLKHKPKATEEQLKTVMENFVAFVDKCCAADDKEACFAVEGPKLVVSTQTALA

| SMILES | Inhibition (%) Protein Denaturation [%] |
| --- | --- |
| Cc1c(C=Nc2[nH]nc(Nc3ccccc3)c2C(=O)Nc2ccccc2)c(=O)n(-c2ccccc2)n1C [7a] | 26.87 ± 0.03 |

Test system: proteinase enzyme (trypsin)
Assay: Proteinase enzyme inhibition (anti-inflammatory)
Assay type: biochemical
Conditions: equal concentrations (1000 µg/mL); mean ± SE

| SMILES | Inhibition (%) Proteinase [%] |
| --- | --- |
| Cc1c(C=Nc2[nH]nc(Nc3ccccc3)c2C(=O)Nc2ccccc2)c(=O)n(-c2ccccc2)n1C [7a] | 23.37 ± 0.03 |

Test system: human colon cancer (Caco-2) cell line
Assay: cells
Assay type: cell-based
Conditions: Conc.: 5a 13.45, 5d 12.64, 5e 12.29, 5f 11.81, 7a 12.72, 7f 11.24, DOX 11.50

| SMILES | Viability %, Caco-2, 1st concentration [%] |
| --- | --- |
| Cc1c(C=Nc2[nH]nc(Nc3ccccc3)c2C(=O)Nc2ccccc2)c(=O)n(-c2ccccc2)n1C [7a] | 70.21 |

Same assay, conditions: Conc.: 5a 26.91, 5d 25.27, 5e 24.58, 5f 23.63, 7a 25.43, 7f 22.48, DOX 23.00

| SMILES | Viability %, Caco-2, 2nd concentration [%] |
| --- | --- |
| Cc1c(C=Nc2[nH]nc(Nc3ccccc3)c2C(=O)Nc2ccccc2)c(=O)n(-c2ccccc2)n1C [7a] | 50.65 |

Same assay, conditions: Conc.: 5a 53.81, 5d 50.55, 5e 49.15, 5f 47.26, 7a 50.86, 7f 44.96, DOX 46.00

| SMILES | Viability %, Caco-2, 3rd concentration [%] |
| --- | --- |
| Cc1c(C=Nc2[nH]nc(Nc3ccccc3)c2C(=O)Nc2ccccc2)c(=O)n(-c2ccccc2)n1C [7a] | 40.04 |

Same assay, conditions: Conc.: 5a 107.63, 5d 101.09, 5e 98.31, 5f 94.51, 7a 101.72, 7f 89.93, DOX 91.99

| SMILES | Viability %, Caco-2, 4th concentration [%] |
| --- | --- |
| Cc1c(C=Nc2[nH]nc(Nc3ccccc3)c2C(=O)Nc2ccccc2)c(=O)n(-c2ccccc2)n1C [7a] | 26.27 |

Same assay, conditions: Conc.: 5a 215.26, 5d 202.19, 5e 196.61, 5f 189.03, 7a 203.44, 7f 179.85, DOX 183.99

| SMILES | Viability %, Caco-2, 5th concentration [%] |
| --- | --- |
| Cc1c(C=Nc2[nH]nc(Nc3ccccc3)c2C(=O)Nc2ccccc2)c(=O)n(-c2ccccc2)n1C [7a] | 22.93 |

Same assay, conditions: Homo sapiens, Caco-2; 48 h, MTT; mean ± SE; read-out: Cytotoxic activity IC50, Colon (Caco-2)

| SMILES | IC50 [µM] |
| --- | --- |
| Cc1c(C=Nc2[nH]nc(Nc3ccccc3)c2C(=O)Nc2ccccc2)c(=O)n(-c2ccccc2)n1C [7a] | 42.42 ± 0.18 |

Same assay, conditions: IC50 on normal cells (WI-38)/IC50 on Caco-2

| SMILES | Therapeutic Index (TI), Colon (Caco-2) |
| --- | --- |
| Cc1c(C=Nc2[nH]nc(Nc3ccccc3)c2C(=O)Nc2ccccc2)c(=O)n(-c2ccccc2)n1C [7a] | 17.35 |

Test system: not listed separately
Assay: Cytotoxic activity, MTT assay, normal lung (WI-38)
Assay type: cell-based
Conditions: human, WI-38 normal lung cells, Conc. as printed: 5a 53.81, 5d 50.55, 5e 49.15, 5f 47.26, 7a 50.86, 7f 44.96, DOX 46.00; read-out: Viability %, WI-38, 3rd concentration

| SMILES | viability at 48 h [%] |
| --- | --- |
| Cc1c(C=Nc2[nH]nc(Nc3ccccc3)c2C(=O)Nc2ccccc2)c(=O)n(-c2ccccc2)n1C [7a] | 82.7 |

Same assay, conditions: human, WI-38 normal lung cells, Conc. as printed: 5a 107.63, 5d 101.09, 5e 98.31, 5f 94.51, 7a 101.72, 7f 89.93, DOX 91.99; read-out: Viability %, WI-38, 4th concentration

| SMILES | viability at 48 h [%] |
| --- | --- |
| Cc1c(C=Nc2[nH]nc(Nc3ccccc3)c2C(=O)Nc2ccccc2)c(=O)n(-c2ccccc2)n1C [7a] | 76.8 |

Same assay, conditions: human, WI-38 normal lung cells, Conc.: 5a 13.45, 5d 12.64, 5e 12.29, 5f 11.81, 7a 12.72, 7f 11.24, DOX 11.50; read-out: Viability %, WI-38, 1st concentration

| SMILES | viability at 48 h [%] |
| --- | --- |
| Cc1c(C=Nc2[nH]nc(Nc3ccccc3)c2C(=O)Nc2ccccc2)c(=O)n(-c2ccccc2)n1C [7a] | 98.7 |

Same assay, conditions: human, WI-38 normal lung cells, Conc.: 5a 26.91, 5d 25.27, 5e 24.58, 5f 23.63, 7a 25.43, 7f 22.48, DOX 23.00; read-out: Viability %, WI-38, 2nd concentration

| SMILES | viability at 48 h [%] |
| --- | --- |
| Cc1c(C=Nc2[nH]nc(Nc3ccccc3)c2C(=O)Nc2ccccc2)c(=O)n(-c2ccccc2)n1C [7a] | 90.7 |

Same assay, conditions: human, WI-38 normal lung cells, Conc.: 5a 215.26, 5d 202.19, 5e 196.61, 5f 189.03, 7a 203.44, 7f 179.85, DOX 183.99; read-out: Viability %, WI-38, 5th concentration

| SMILES | viability at 48 h [%] |
| --- | --- |
| Cc1c(C=Nc2[nH]nc(Nc3ccccc3)c2C(=O)Nc2ccccc2)c(=O)n(-c2ccccc2)n1C [7a] | 62.7 |

Same assay, conditions: human, WI-38 normal lung cells; 48 h, MTT; mean ± SE; read-out: Cytotoxic activity IC50, Normal Lung (WI-38)

| SMILES | IC50 at 48 h [µM] |
| --- | --- |
| Cc1c(C=Nc2[nH]nc(Nc3ccccc3)c2C(=O)Nc2ccccc2)c(=O)n(-c2ccccc2)n1C [7a] | 736 ± 7.95 |

Test system: caspase-3
Assay: Caspase-3 ELISA in treated A549 cells
Assay type: cell-based, human
Conditions: DMSO control 85.92 ± 0.12

| SMILES | Caspase-3 level, Lung (A549) [pg/mL] |
| --- | --- |
| Cc1c(C=Nc2[nH]nc(Nc3ccccc3)c2C(=O)Nc2ccccc2)c(=O)n(-c2ccccc2)n1C [7a] | 322.21 ± 0.45 |

Test system: Bcl-2
Assay: Bcl-2 ELISA in treated A549 cells
Assay type: cell-based, human
Conditions: DMSO control 9.83 ± 0.05

| SMILES | Bcl-2 level, Lung (A549) [ng/mL] |
| --- | --- |
| Cc1c(C=Nc2[nH]nc(Nc3ccccc3)c2C(=O)Nc2ccccc2)c(=O)n(-c2ccccc2)n1C [7a] | 2.62 ± 0.01 |

Test system: caspase-3
Assay: Caspase-3 ELISA in treated Caco-2 cells
Assay type: cell-based, human
Conditions: DMSO control 97.06 ± 0.14

| SMILES | Caspase-3 level, Colon (Caco-2) [pg/mL] |
| --- | --- |
| Cc1c(C=Nc2[nH]nc(Nc3ccccc3)c2C(=O)Nc2ccccc2)c(=O)n(-c2ccccc2)n1C [7a] | 363.98 ± 0.54 |

Test system: Bcl-2
Assay: Bcl-2 ELISA in treated Caco-2 cells
Assay type: cell-based, human
Conditions: DMSO control 7.99 ± 0.08

| SMILES | Bcl-2 level, Colon (Caco-2) [ng/mL] |
| --- | --- |
| Cc1c(C=Nc2[nH]nc(Nc3ccccc3)c2C(=O)Nc2ccccc2)c(=O)n(-c2ccccc2)n1C [7a] | 2.13 ± 0.02 |

Test system: not listed separately
Assay: Iron-reducing power (IRP)
Conditions: equal concentrations (1000 µg/mL); mean ± SE, three replicates

| SMILES | Iron-Reducing Power (IRP) [µg/mL] |
| --- | --- |
| Cc1c(C=Nc2[nH]nc(Nc3ccccc3)c2C(=O)Nc2ccccc2)c(=O)n(-c2ccccc2)n1C [7a] | 34.33 ± 0.07 |

Test system: not listed separately
Assay: ABTS radical scavenging assay
Conditions: equal concentrations (1000 µg/mL); mean ± SE

| SMILES | ABTS (%) inhibition [%] |
| --- | --- |
| Cc1c(C=Nc2[nH]nc(Nc3ccccc3)c2C(=O)Nc2ccccc2)c(=O)n(-c2ccccc2)n1C [7a] | 75.59 ± 0.05 |

Test system: not listed separately
Assay: DPPH radical-scavenging activity
Conditions: read-out: DPPH (IC50); mean ± SE, three replicates
Method: In vitro biological activities
(§1) The 1,1-Diphenyl-2-picryl-hydrazyl (DPPH) radical scavenging activities were evaluated using the method described by Rahman et al. An antioxidant substance capable of donating a
(§2) hydrogen atom to a solution containing DPPH- can reduce the stable free radical, causing the solution
(§3) to change color from violet to pale yellow. The remaining DPPH- radical was quantified by
(§4) nm using a spectroscopic method. Two milliliters of a DPPH solution (100 µM) in ethanol were mixed
(§5) with 2 mL of the sample (at each concentration). The reaction mixture for each concentration was
(§6) thoroughly vortexed and then incubated in the dark at room temperature for 30 minutes. The
(§7) absorbance was then measured spectrophotometrically at 518 nm against a blank (ethanol). For the
(§8) control, 2 mL of ethanol was added instead of the sample and run simultaneously with the test.
(§9) Ascorbic acid was used at the same concentrations as a positive control. Percent inhibition of the
(§10) DPPH free radical was calculated. The median inhibitory concentration (IC 50) for each tested

| SMILES | IC50 [µM] |
| --- | --- |
| Cc1c(C=Nc2[nH]nc(Nc3ccccc3)c2C(=O)Nc2ccccc2)c(=O)n(-c2ccccc2)n1C [7a] | 24.94 ± 0.01 |

Test system: human lung cancer (A549) cell line
Assay: Cytotoxic activity, MTT assay, lung (A549)
Conditions: Conc.: 5a 13.45, 5d 12.64, 5e 12.29, 5f 11.81, 7a 12.72, 7f 11.24, DOX 11.50

| SMILES | Viability %, A549, 1st concentration [%] |
| --- | --- |
| Cc1c(C=Nc2[nH]nc(Nc3ccccc3)c2C(=O)Nc2ccccc2)c(=O)n(-c2ccccc2)n1C [7a] | 90.96 |

Same assay, conditions: Conc.: 5a 26.91, 5d 25.27, 5e 24.58, 5f 23.63, 7a 25.43, 7f 22.48, DOX 23.00

| SMILES | Viability %, A549, 2nd concentration [%] |
| --- | --- |
| Cc1c(C=Nc2[nH]nc(Nc3ccccc3)c2C(=O)Nc2ccccc2)c(=O)n(-c2ccccc2)n1C [7a] | 79.91 |

Same assay, conditions: Conc.: 5a 53.81, 5d 50.55, 5e 49.15, 5f 47.26, 7a 50.86, 7f 44.96, DOX 46.00

| SMILES | Viability %, A549, 3rd concentration [%] |
| --- | --- |
| Cc1c(C=Nc2[nH]nc(Nc3ccccc3)c2C(=O)Nc2ccccc2)c(=O)n(-c2ccccc2)n1C [7a] | 48.51 |

Same assay, conditions: Conc.: 5a 107.63, 5d 101.09, 5e 98.31, 5f 94.51, 7a 101.72, 7f 89.93, DOX 91.99

| SMILES | Viability %, A549, 4th concentration [%] |
| --- | --- |
| Cc1c(C=Nc2[nH]nc(Nc3ccccc3)c2C(=O)Nc2ccccc2)c(=O)n(-c2ccccc2)n1C [7a] | 37.08 |

Same assay, conditions: Conc.: 5a 215.26, 5d 202.19, 5e 196.61, 5f 189.03, 7a 203.44, 7f 179.85, DOX 183.99

| SMILES | Viability %, A549, 5th concentration [%] |
| --- | --- |
| Cc1c(C=Nc2[nH]nc(Nc3ccccc3)c2C(=O)Nc2ccccc2)c(=O)n(-c2ccccc2)n1C [7a] | 18.60 |

Same assay, conditions: Homo sapiens, A549, 48 h, read-out: Cytotoxic activity IC50, Lung (A549)

| SMILES | IC50 [µM] |
| --- | --- |
| Cc1c(C=Nc2[nH]nc(Nc3ccccc3)c2C(=O)Nc2ccccc2)c(=O)n(-c2ccccc2)n1C [7a] | 49.4 ± 0.18 |

Test system: not listed separately
Assay: Total antioxidant capacity (TAC), phosphomolybdenum method
Conditions: equal concentrations (1000 µg/mL); mean ± SE, three replicates
Method: All in vitro biological activities were assessed in the tested compounds at equal concentrations (1000 µg/mL). All assays were carried out in triplicate.
In vitro biological activities
The total antioxidant capacity (TAC) was determined by analyzing the green phosphate/Mo5+ complex at a wavelength (λ) of 695 nm, following the procedure described by Prieto
et al. Samples (at each concentration) were mixed with a reagent solution containing 0.3 N sulfuric
acid, 28 mM sodium phosphate, and 4 mM ammonium molybdate. Methanol (80%) was used in place
of the sample for the blank. The tubes were sealed and incubated in a boiling water bath for 90
minutes. After cooling to room temperature, the absorbance was measured at 695 nm against the
blank. Ascorbic acid was used at the same concentrations as a standard. The antioxidant capacity was
expressed as mg gallic acid equivalent per gram weight.
The iron reducing power was determined as µg/mL using the method proposed by Oyaizu
In brief, 1ml of the tested sample (at each concentration) was combined with 1mL of 200mM
sodium phosphate buffer (pH 6.6) and 1mL of 1% potassium ferricyanide. The mixture was then
incubated at 50°C for 20 minutes, followed by the addition of 1mL of trichloroacetic acid (10%). After
centrifugation at 2000rpm for 10 minutes, the upper layer solution (2.5 mL) was mixed with 2.5 mL of double deionized water and 1mL of fresh ferric chloride (0.1%). The absorbance was measured at
700nm against a blank prepared without the sample. Ascorbic acid was used at the same
concentrations as a standard. A high absorbance at 700nm indicates a higher reducing power in the
as §1, §2, §3, §4, §5, §6, §7, §8, §9, §10
The procedure for the 2,2'-azinobis-(3-ethylbenzothiazoline-6-sulfonic acid) (ABTS) assay
potassium persulfate solution (2.4 mM). The working solution was prepared by mixing the two stock
solutions in equal quantities and allowing them to react at room temperature in a dark place for 14
hours. The solution was then diluted by mixing 1 mL of ABTS solution with 60 mL of methanol to
was prepared for each assay. The tested samples (at each concentration) were allowed to react with 1
mL of the ABTS solution, and the absorbance was taken at 734 nm after 7 minutes using a
spectrophotometer. The ABTS scavenging capacities of the samples were compared with that of
ascorbic acid (at the same concentrations).

| SMILES | Total Antioxidant Capacity (TAC) [mg Gallic Acid/g] |
| --- | --- |
| Cc1c(C=Nc2[nH]nc(Nc3ccccc3)c2C(=O)Nc2ccccc2)c(=O)n(-c2ccccc2)n1C [7a] | 52.34 ± 0.19 |
